This passage reports IC50 results from article PMC9346089 (The FEBS journal, 2022).

SMILES strings stand for the structures.

Holding throughout (settings): 5 uM vitamin K epoxide in medium; HEK293 VKORC1/VKORL1 knockout
Test [1] concerns S3-TM5/Trx. Kind of test: cell-based gamma-carboxylation reporter. More on the design: species or system Synechococcus sp. JA-2-3B'a(2-13).
Test [2] relates to S3. Kind of test: cell-based gamma-carboxylation reporter. Set-up: species or system Synechococcus sp. JA-2-3B'a(2-13).
For test [3], the system named is M1.
Test [4] deals with M2.

As for `CC(=O)CC(c1ccccc1)c1c(O)c2ccccc2oc1=O` (stereo not shown) [warfarin], the IC50 was found to be 1110 nM in test [1], 190 nM in test [2], 400 nM in test [3] and 1870 nM in test [4].

A word on the IC50: it is the point on the concentration scale where inhibition reaches its midpoint. High values mean weaker potency, low ones greater potency.
